How the values were obtained:
Experiment in all cases: Histone peptide microarray
Assay type in all cases: binding, human
[1] = test system: KDM4C (TTP); conditions: KDM4C (TTP)
Outline: (§1)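 Readout is array binding signal, reported as the mean and standard deviation over four replicates. Each purified GST-fused PHD domain was incubated at 0.5 μM with a library of 293 modified histone peptides.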

[2] = test system: ING3
Outline: as §1

[3] = test system: PHF8
Outline: as §1

[4] = test system: KDM5A (3); conditions: KDM5A (3)
Outline: as §1

[5] = test system: CHD5 (PPCC); conditions: CHD5 (PPCC)
Outline: as §1

[6] = test system: TAF3
Outline: as §1

[7] = test system: ING4
Outline: as §1

[8] = test system: TRIM66 (PB); conditions: TRIM66 (PB)
Outline: as §1

[9] = test system: KDM5B (3); conditions: KDM5B (3)
Outline: as §1

[10] = test system: PHF23
Outline: as §1

[11] = test system: ING5
Outline: as §1

[12] = test system: KDM5B (1); conditions: KDM5B (1)
Outline: as §1

[13] = test system: CHD5 (PCC); conditions: CHD5 (PCC)
Outline: as §1

[14] = test system: PHF13
Outline: as §1

[15] = test system: PHF2
Outline: as §1

[16] = test system: DPF2 (PPC2W2); conditions: DPF2 (PPC2W2)
Outline: as §1

[17] = test system: DIDO1
Outline: as §1

[18] = test system: KDM7A; conditions: KDM7A
Outline: as §1

[19] = test system: BPTF (PB); conditions: BPTF (PB)
Outline: as §1

[20] = test system: CHD4 (PPCC); conditions: CHD4 (PPCC)
Outline: as §1

[21] = test system: SP140L; conditions: SP140L
Outline: as §1

[22] = test system: RAG2
Outline: as §1

[23] = test system: PHRF1 (RP); conditions: PHRF1 (RP)
Outline: as §1

[24] = test system: BAZ2B; conditions: BAZ2B
Outline: as §1

[25] = test system: KDM5A (1); conditions: KDM5A (1)
Outline: as §1

[26] = test system: AIRE (PP); conditions: AIRE (PP)
Outline: as §1

[27] = test system: MORC3 (CW); conditions: MORC3 (CW)
Outline: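 GST-tagged PHD finger readers were expressed, purified and applied at 0.5 μM to a microarray of 293 synthetic histone peptides carrying single or combinatorial PTMs, using an optimized protocol. Binding signals are averages with standard deviation from 4 replicates.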

[28] = test system: MLL5
Outline: as §1

[29] = test system: ING1
Outline: as §1

[30] = test system: ING2
Outline: as §1

[31] = test system: PHF21A; conditions: PHF21A
Outline: as §1

[32] = GST-tagged, arrays performed twice, n of 4
[33] = sheet "Array Heatmap", each array performed twice, total n = 4

Substance: H4K5ac + K8ac: H4 1-23
- Array Heatmap value (peptide array binding signal) [1, 32]: 0.5523
- Array Heatmap value (peptide array binding signal) ([2]; ING3, GST-tagged, arrays performed twice, n of 4): 0.4856
- Array Heatmap value (peptide array binding signal) ([3]; PHF8, GST-tagged, arrays performed twice, n of 4): 0.3992
- Array Heatmap value (peptide array binding signal) [4, 32]: 0.4472
- Array Heatmap value (peptide array binding signal) [5, 32]: 0.5854
- Array Heatmap value (peptide array binding signal) ([6]; TAF3, GST-tagged, arrays performed twice, n of 4): 0.2841
- Array Heatmap value (peptide array binding signal) ([7]; ING4, GST-tagged, arrays performed twice, n of 4): 0.4756
- Array Heatmap value (peptide array binding signal) [8, 32]: 0.5724
- Array Heatmap value (peptide array binding signal) [9, 32]: 0.5165
- Array Heatmap value (peptide array binding signal) ([10]; PHF23, GST-tagged, arrays performed twice, n of 4): 0.5198
- Array Heatmap value (peptide array binding signal) ([11]; ING5, GST-tagged, arrays performed twice, n of 4): 0.3695
- Array Heatmap value (peptide array binding signal) [12, 32]: 0.6318
- Array Heatmap value (peptide array binding signal) [13, 32]: 0.8034
- Array Heatmap value (peptide array binding signal) ([14]; PHF13, GST-tagged, arrays performed twice, n of 4): 0.6182
- Array Heatmap value (peptide array binding signal) ([15]; PHF2, GST-tagged, arrays performed twice, n of 4): 0.4759
- Array Heatmap value (peptide array binding signal) [16, 32]: 0.6807
- Array Heatmap value (peptide array binding signal) ([17]; DIDO1, GST-tagged, arrays performed twice, n of 4): 0.6312
- Array Heatmap value (peptide array binding signal) [18, 32]: 0.4235
- Array Heatmap value (peptide array binding signal) [19, 32]: 0.3517
- Array Heatmap value (peptide array binding signal) [20, 32]: 0.551
- Array Heatmap value (peptide array binding signal) [21, 32]: 0.3819
- Array Heatmap value (peptide array binding signal) ([22]; RAG2, GST-tagged, arrays performed twice, n of 4): 0.2557
- Array Heatmap value (peptide array binding signal) [23, 32]: 0.424
- Array Heatmap value (peptide array binding signal) [24, 32]: 0.4714
- Array Heatmap value (peptide array binding signal) [25, 32]: 0.4957
- Array Heatmap value (peptide array binding signal) [26, 32]: 0.5662
- Array Heatmap value (peptide array binding signal) [27, 32]: 0.3673
- Array Heatmap value (peptide array binding signal) ([28]; MLL5, GST-tagged, arrays performed twice, n of 4): 0.528
- Array Heatmap value (peptide array binding signal) ([29]; ING1, GST-tagged, arrays performed twice, n of 4): 0.5183
- Array Heatmap value (peptide array binding signal) ([30]; ING2, GST-tagged, arrays performed twice, n of 4): 0.5873
- Array Heatmap value (peptide array binding signal) [31, 32]: 0.4994

Substance: H4K5ac + K8me1 + K12ac + K16ac: H4 1-23
- Array Heatmap value (peptide array signal) [1, 33]: 0.5456
- Array Heatmap value (peptide array signal) ([2]; ING3, sheet "Array Heatmap", each array performed twice, total n = 4): 0.4952
- Array Heatmap value (peptide array signal) ([3]; PHF8, sheet "Array Heatmap", each array performed twice, total n = 4): 0.4058
- Array Heatmap value (peptide array signal) [4, 33]: 0.4998
- Array Heatmap value (peptide array signal) [5, 33]: 0.5973
- Array Heatmap value (peptide array signal) ([6]; TAF3, sheet "Array Heatmap", each array performed twice, total n = 4): 0.2847
- Array Heatmap value (peptide array signal) ([7]; ING4, sheet "Array Heatmap", each array performed twice, total n = 4): 0.5013
- Array Heatmap value (peptide array signal) [8, 33]: 0.6845
- Array Heatmap value (peptide array signal) [9, 33]: 0.4848
- Array Heatmap value (peptide array signal) ([10]; PHF23, sheet "Array Heatmap", each array performed twice, total n = 4): 0.5588
- Array Heatmap value (peptide array signal) ([11]; ING5, sheet "Array Heatmap", each array performed twice, total n = 4): 0.3988
- Array Heatmap value (peptide array signal) [12, 33]: 0.7009
- Array Heatmap value (peptide array signal) [13, 33]: 0.8607
- Array Heatmap value (peptide array signal) ([14]; PHF13, sheet "Array Heatmap", each array performed twice, total n = 4): 0.643
- Array Heatmap value (peptide array signal) ([15]; PHF2, sheet "Array Heatmap", each array performed twice, total n = 4): 0.5076
- Array Heatmap value (peptide array signal) [16, 33]: 0.6672
- Array Heatmap value (peptide array signal) ([17]; DIDO1, sheet "Array Heatmap", each array performed twice, total n = 4): 0.7292
- Array Heatmap value (peptide array signal) [18, 33]: 0.4269
- Array Heatmap value (peptide array signal) [19, 33]: 0.382
- Array Heatmap value (peptide array signal) [20, 33]: 0.5762
- Array Heatmap value (peptide array signal) [21, 33]: 0.3759
- Array Heatmap value (peptide array signal) ([22]; RAG2, sheet "Array Heatmap", each array performed twice, total n = 4): 0.2535
- Array Heatmap value (peptide array signal) [23, 33]: 0.4565
- Array Heatmap value (peptide array signal) [24, 33]: 0.5032
- Array Heatmap value (peptide array signal) [25, 33]: 0.5072
- Array Heatmap value (peptide array signal) [26, 33]: 0.5672
- Array Heatmap value (peptide array signal) [27, 33]: 0.4169
- Array Heatmap value (peptide array signal) ([28]; MLL5, sheet "Array Heatmap", each array performed twice, total n = 4): 0.5641
- Array Heatmap value (peptide array signal) ([29]; ING1, sheet "Array Heatmap", each array performed twice, total n = 4): 0.5458
- Array Heatmap value (peptide array signal) ([30]; ING2, sheet "Array Heatmap", each array performed twice, total n = 4): 0.602
- Array Heatmap value (peptide array signal) [31, 33]: 0.4984

From PMC6979384, “Characterization of the plant homeodomain (PHD) reader family for their histone tail interactions” (Epigenetics & Chromatin, 2020)
